Assays:
[1] = Acute toxicity (DL50) i.v. in rat; format: in vivo; conditions: in vivo, iv, dose causing death in 50% of the animals
Protocol: In this table (n. 1) there are recorded the compounds described in the examples with their relative serial numbers, the acute toxicity, the antispastic activity observed in two experimental tests, one "in vivo" and one "in vitro". There are moreover recorded two therapeutic indices which take account of the toxicity of these compounds in relation to their in vivo and in vitro activity. More precisely:
A. DL50 which, as is known, is the quantity of the substance expressed in mg/kg of animal weight, capable of causing death in 50% of the animals treated.

[2] = tested on: intestinal transit of the charcoal; test: Vegetable carbon (charcoal) intestinal transit test in vivo; design: species or system rat; conditions: i.v., rat, charcoal test, 2 hours; for ED50: Rattus norvegicus, iv, 2 h, read-out: Antisp. activity in transit test: ED50
Protocol: B. The vegetable carbon method in vivo (charcoal method) which consists of administering by oral means to rats, which have fasted for 24 hours, 0.3ml/per rate of a mixture consisting of: 10g of charcoal and 5 g of gum arabic suspended in a volume of 100 cc of H2 O as well as at the same time the substance being studied, accordingly as desired, generally i.v., s.c., oral. After two hours the animals are killed and those are taken to be negative in which the charcoal has reached the first portion of the colon and the others positive, in the sense that the substance administered has slowed down the intestinal transit of the charcoal.
In effect the animals treated with a physiological solution (checks) are all negative after two hours.
D. I.T.1 is the therapeutic index under the profile of the antispastic activity in vivo, and it is obtained by recording the DL50 (column 2) with the ED50 of the charcoal test (column 3).

[3] = tested on: ileum of a cavy (BaCl2 spasm); test: Antispastic activity in vitro, Magnus method, cavy ileum stimulated with BaCl2; format: cell-based; conditions: ratio to papaverine = 1; Table 1; 37°
Protocol: C. The method in vitro is that of Magnus, with the ileum of the cavy, and is in common use for all evaluations. It consists of extracting the ileum from the cavy and placing it in a receptacle which contains nutritive liquid, suitably oxygenated, and registering the movements of the organ which remains alive for several hours if maintained at a temperature of 37°. According to the traditional method followed by us, BaCl2 is put into the bath as a spasmisant: the reaction is a violent contraction of the organ. This contraction can be prevented by adding beforehand pharmaceuticals which inhibit spasms, and in this case our compounds.
The values recorded are expressed as relation between papaverine and the ED50 of our compounds. (As is known, the ED50 is the dose which results in a 50% reduction in spastic contraction).
E. I.T.2 is the therapeutic index under the profile of the antispastic activity in vitro and is given by the product between the in vitro antispastic activity index (column 4) and the corresponding DL50 (column 2).

Row | SMILES | LD50 [1] [mg/kg] | ED50 [2] [mg/kg] | Antisp. activity in vitro on the ileum of a cavy by Stim. BaCl2: ED50 pap./ED50 CR [3] | Antisp. activity in transit test: ED50 [2]
1 | CCCN(CCC)C(=O)C(Cc1ccc(OCCN(C)C)cc1)NC(=O)c1ccccc1 (racemic) [CR 592, O-(2dimethylamino-ethyl)-N-benzol-DL-Tyrosil-di-n-propilamide] | 58.1 | 47.5 | 0.25 | –
2 | CCNC(=O)C(Cc1ccc(OCCN(C)C)cc1)NC(=O)c1ccccc1 (racemic) [CR 608, O-(2-dimethylamino-ethyl)-N-benzoyl-DL-tyrosil-ethylamide] | 162 | 104 | – | –
3 | CCCN(CCC)C(=O)C(Cc1ccc(OCCCN2CCN(CCO)CC2)cc1)NC(=O)c1ccccc1 (racemic) [CR 609, O-[3-(N"-hydroxyethyl-piperazine)-N'-propyl]-N-benzoyl-DL-tyrosil-di-n-propylamide] | 139 | 50.5 | 0.68 | –
4 | CN(C)CCOc1ccc(CC(NC(=O)c2ccccc2)C(=O)N2CCOCC2)cc1 (racemic) [CR 611, O-(2-dimetylamino-ethyl)-N-benzoyl-DL-tyrosil-morpholilamide] | 108 | 59.8 | – | –
5 | CCN(CC)CCOc1ccc(CC(NC(=O)c2ccccc2)C(=O)N2CCCC2)cc1 (racemic) [CR 614, O-(2-diethylamino-ethyl)-N-benzoyl-DL-tyrosil-pyrrolidilamide] | 58.7 | 53.2 | – | –
6 | CN(C)CCOc1ccc(CC(NC(=O)c2ccccc2)C(=O)NCc2ccccc2)cc1 (racemic) [CR 616, O-(2-dimethylamino-ethyl)-N-benzoyl-DL-tyrosil-benzylamide] | 73.6 | – | 0.82 | inactive
7 | CCCN(CCC)C(=O)C(Cc1ccc(OCCCN2CCN(Cc3ccccc3)CC2)cc1)NC(=O)c1ccccc1 (racemic) [CR 619, O-[3-(N"-benzylpiperazine)-N'-propyl]-N-benzoyl-DL-tyrosil-di-n-propylamide] | 110 | 67.8 | – | –
8 | CCCN(CCC)C(=O)C(Cc1ccc(OCCN(C)C)cc1)NC(=O)c1ccc([N+](=O)[O-])cc1 (racemic) [CR 620, O-(2-dimethylamino-ethyl)-N-(p-nitro-benzoyl)DL-tyrosil-di-n-propylamide] | 117 | – | 0.36 | inactive
9 | CCCN(CCC)C(=O)C(Cc1ccc(OCCN(C(C)C)C(C)C)cc1)NC(=O)c1ccccc1 (racemic) [CR 624, O-(2-di-isopropylamino-ethyl)-N-benzoyl-DL-tyrosil-di-n-propylamide] | 24.4 | – | 1.12 | inactive
10 | CCCN(CCC)C(=O)C(Cc1ccc(OCCN2CCCC2)cc1)NC(=O)c1ccccc1 (racemic) [CR 625, O-(2-pyrrolidil-N'-ethyl)-N-benzoyl-DL-tyrosil-di-n-propylamide] | 32.6 | 21.1 | 0.52 | –
11 | CCCN(CCC)C(=O)C(Cc1ccc(OCCN2CCCCC2)cc1)NC(=O)c1ccccc1 (racemic) [CR 630, O-(2-piperidil -N'-ethyl)-N-benzoyl-DL-tyrosil-di-n-propylamide] | 36.1 | 40.1 | – | –
12 | CCCN(CCC)C(=O)C(Cc1ccc(OCCN(CC)CC)cc1)NC(=O)c1ccc(Br)cc1 (racemic) [CR 631, O-(2-diethylamino-ethyl)-N-(p-bromobenzoyl)-DL-tyrosil-din-propylamide] | 60.2 | 40.4 | 1.22 | –
13 | CCCN(CCC)C(=O)C(Cc1ccc(OCCN(CC)CC)cc1)NC(=O)c1ccc(C)c(C)c1 (racemic) [CR 632, O-(2-diethylamino-ethyl)-N-(3,4-di-methyl-benzoyl)-DL-tyrosil-di-n-propylamide] | 38.1 | 26 | 0.40 | –
14 | CCCN(CCC)C(=O)C(Cc1ccc(OCCN(CC)CC)cc1)NC(=O)c1ccc(C(F)(F)F)cc1 (racemic) [CR 635, O-(2-diethylamino-ethyl)-N-[p-(trifluoro-methyl)-benzoyl]-DL-tyrosil-di-n-p ropylamide] | 38.7 | 25.6 | 0.95 | –
15 | CCCN(CCC)C(=O)C(Cc1ccc(OCCN(CC)CC)cc1)NC(=O)c1ccc(OC)cc1 (racemic) [CR 644, O-(2-diethylamino-ethyl)-N-(p-metoxy-benzoyl)-DL-tyrosil-di-n-propylamide] | 56.4 | 20.2 | 0.45 | –
16 | CCCCNC(=O)C(Cc1ccc(OCCN2CCCC2)cc1)NC(=O)c1ccccc1 (racemic) [CR 648, O-(2-pyrrolidil-N'-ethyl)-N-benzoyl-DL-tyrosil-n-butylamide] | 35.6 | 10.7 | 0.16 | –
17 | CCCN(CCC)C(=O)C(Cc1ccc(OC(C)C(C)CN(CC)CC)cc1)NC(=O)c1ccccc1 (racemic) [CR 700, O-(3-diethylamino-1,2-dimethyl-propyl)-N-benzoyl-DL-tyrosil-di-n-propylamide] | 19.3 | 20.4 | – | –
18 | CCCCNC(=O)C(Cc1ccc(OCCCN2CCN(C)CC2)cc1)NC(=O)c1ccccc1 (racemic) [CR 702, O-[3-(N"-methyl-piperazine)-N'-propyl]-N-benzoyl-DL-tyrosil-n-butylamide] | 81.4 | 62.5 | 0.11 | –
19 | CCCCNC(=O)C(Cc1ccc(OCCCN2CCN(C)CC2)cc1)NC(=O)c1ccc(Cl)cc1 (racemic) [CR 705, O-[3-(N"-methyl-piperazine)-N'-propyl]-N-(p-chloro-benzoyl)-DL-tyrosil-n-butylamide] | 80 | 31 | 1.57 | –
20 | CCNC(=O)C(Cc1ccc(OCCN(C(C)C)C(C)C)cc1)NC(=O)c1ccccc1 (racemic) [CR 711, O-(2-diisopropylamino-ethyl)-N-benzoyl-DL-tyrosil-ethylamide] | 82 | – | 0.42 | inactive
21 | CCNC(=O)C(Cc1ccc(OCCCN2CCN(C)CC2)cc1)NC(=O)c1ccc(Cl)cc1 (racemic) [CR 714, O-[3-(N"-methyl-piperazine)-N'-propyl]-N-(p-chloro-benzoyl)-DL-tyrosil-ethylamide] | 111 | – | 0.42 | inactive
22 | CCCN(CCC)C(=O)C(Cc1ccc(OCCN(C(C)C)C(C)C)cc1)NC(=O)c1ccc(Cl)cc1 (racemic) [CR 727, O-(2'-di-isopropylamino-ethyl)-N-(p-chloro-benzoyl)-DL-tyrosil-di-n-propylamide] | 26.3 | 24.9 | 1.52 | –
23 | CCCCNC(=O)C(Cc1ccc(OCCN(CC)CC)cc1)NC(=O)c1ccc(Cl)cc1 (racemic) [CR 729, O-(2-diethylamino-ethyl)-N-(p-chloro-benzoyl)-DL-tyrosil-n-butylamide] | 38.6 | 23 | 2.45 | –
24 | CCCCNC(=O)C(Cc1ccc(OCCN2CCN(C)CC2)cc1)NC(=O)c1ccc(Cl)cc1 (racemic) [CR 730, O-[2-(N"-methyl-piperazine)-N'-ethyl]-N-(p-chloro-benzoyl)-DL-tyrosil-n-butylamide] | 50 | 30.2 | 0.99 | –
25 | CCCN(CCC)C(=O)C(Cc1ccc(OCCN2CCN(C)CC2)cc1)NC(=O)c1ccc(Cl)cc1 (racemic) [CR 733, O-[2'-(N"-methyl-piperazine)-N'-ethyl]-N-(p-chloro-benzoyl)-DL-tyrosil-di-n-propylamide] | 43.5 | 16.7 | 1.31 | –
26 | CCCN(CCC)C(=O)C(Cc1ccc(OCCCCN(CC)CC)cc1)NC(=O)c1ccccc1 (racemic) [CR 829, O-(4-diethylamino-butyl)-N-benzoyl-DL-tyrosil-di-n-propylamide] | 20.1 | 15.2 | – | –

From patent US4004008A, “O-Tertiary amino-alkyl-N-benzoyl tyrosil amides” (priority 1974, dated 1977)
